Assay results: PMC5218480 (PLoS ONE, 2017)

System: MV-4-11 cells
Assay: Gene expression microarray analysis (Affymetrix PrimeView) and GSEA
Assay type: cell-based, human
Parameters: RFU PODN (11730768_x_at) / Fold change /veh PODN (11730768_x_at) / RFU LINC00158 (11744669_a_at) / Fold change /veh LINC00158 (11744669_a_at) / RFU DUSP10 (11751237_a_at) / Fold change /veh DUSP10 (11751237_a_at) / RFU ID3 (11757404_x_at) / Fold change /veh ID3 (11757404_x_at) / RFU PLEKHG5 (11737974_s_at) / Fold change /veh PLEKHG5 (11737974_s_at) / RFU LRRC4B (11730491_at) / Fold change /veh LRRC4B (11730491_at) / RFU GIMAP4 (11747438_a_at) / Fold change /veh GIMAP4 (11747438_a_at) / RFU KRT8 (11758183_x_at) / Fold change /veh KRT8 (11758183_x_at) / RFU CNN1 (11734310_a_at) / Fold change /veh CNN1 (11734310_a_at) / RFU VPS37D (11726825_at) / Fold change /veh VPS37D (11726825_at) / RFU C10orf10 (11716522_x_at) / Fold change /veh C10orf10 (11716522_x_at) / RFU KIR2DL2 /// KIR2DL4 /// KIR2DL5A /// KIR2DL5B /// KIR2DS1 /// KIR2DS2 /// KIR2DS3 /// KIR2DS4 /// KIR3DL3 /// KIR3DL3 /// KIR3DS1 (11738374_at) / Fold change /veh KIR2DL2 /// KIR2DL4 /// KIR2DL5A /// KIR2DL5B /// KIR2DS1 /// KIR2DS2 /// KIR2DS3 /// KIR2DS4 /// KIR3DL3 /// KIR3DL3 /// KIR3DS1 (11738374_at) / RFU C1QL1 (11718748_at) / Fold change /veh C1QL1 (11718748_at) / RFU TMPRSS4 (11747572_a_at) / Fold change /veh TMPRSS4 (11747572_a_at) / RFU HAMP (11756126_x_at) / Fold change /veh HAMP (11756126_x_at) / RFU RNFT2 (11725882_a_at) / Fold change /veh RNFT2 (11725882_a_at) / RFU NR4A2 (11747474_a_at) / Fold change /veh NR4A2 (11747474_a_at) / RFU ABCC12 (11746883_a_at) / Fold change /veh ABCC12 (11746883_a_at) / RFU TMEM136 (11760407_x_at) / Fold change /veh TMEM136 (11760407_x_at) / RFU CLDN22 /// WWC2 (11732394_at) / Fold change /veh CLDN22 /// WWC2 (11732394_at) / RFU HLA-DPB1 (11760878_x_at) / Fold change /veh HLA-DPB1 (11760878_x_at) / RFU SPINT1 (11716480_a_at) / Fold change /veh SPINT1 (11716480_a_at) / RFU GAP43 (11754022_s_at) / Fold change /veh GAP43 (11754022_s_at) / RFU A4GNT (11735810_at) / Fold change /veh A4GNT (11735810_at) / RFU PRB3 (11715151_x_at) / Fold change /veh PRB3 (11715151_x_at) / RFU TUBB4B (11761932_at) / Fold change /veh TUBB4B (11761932_at) / RFU CAPN14 (11732068_a_at) / Fold change /veh CAPN14 (11732068_a_at) / RFU TMCC2 (11721928_a_at) / Fold change /veh TMCC2 (11721928_a_at) / RFU IRGQ (11745062_a_at) / Fold change /veh IRGQ (11745062_a_at) / RFU FAM174B (11720279_a_at) / Fold change /veh FAM174B (11720279_a_at) / RFU TMPRSS4 (11748680_a_at) / Fold change /veh TMPRSS4 (11748680_a_at) / RFU FAM212B (11763350_a_at) / Fold change /veh FAM212B (11763350_a_at) / RFU PLEKHG5 (11743358_a_at) / Fold change /veh PLEKHG5 (11743358_a_at) / RFU ZSCAN30 (11745921_a_at) / Fold change /veh ZSCAN30 (11745921_a_at) / RFU CMKLR1 (11741424_a_at) / Fold change /veh CMKLR1 (11741424_a_at) / RFU LOC101060620 /// MAPK8IP1 (11723275_at) / Fold change /veh LOC101060620 /// MAPK8IP1 (11723275_at) / RFU SPTSSB (11747773_x_at) / Fold change /veh SPTSSB (11747773_x_at) / RFU PRSS12 (11739890_at) / Fold change /veh PRSS12 (11739890_at) / RFU BIN1 (11741810_x_at) / Fold change /veh BIN1 (11741810_x_at) / RFU WNT11 (11732464_a_at) / Fold change /veh WNT11 (11732464_a_at) / RFU C10orf10 (11716521_a_at) / Fold change /veh C10orf10 (11716521_a_at) / RFU C5orf56 (11738089_at) / Fold change /veh C5orf56 (11738089_at) / RFU CYB561 (11721691_x_at) / Fold change /veh CYB561 (11721691_x_at) / RFU ANKRD19P (11752326_a_at) / Fold change /veh ANKRD19P (11752326_a_at) / RFU OR2T12 /// OR2T33 /// OR2T8 (11738714_s_at) / Fold change /veh OR2T12 /// OR2T33 /// OR2T8 (11738714_s_at) / RFU VCAN (11748164_a_at) / Fold change /veh VCAN (11748164_a_at) / RFU JSRP1 (11732532_at) / Fold change /veh JSRP1 (11732532_at) / RFU KRTAP10-11 (11738290_x_at) / Fold change /veh KRTAP10-11 (11738290_x_at) / RFU MYO3A (11730013_a_at) / Fold change /veh MYO3A (11730013_a_at) / RFU EBF3 (11725865_a_at) / Fold change /veh EBF3 (11725865_a_at) / RFU CAMK2N1 (11719241_x_at) / Fold change /veh CAMK2N1 (11719241_x_at) / RFU C5orf56 (11738088_a_at) / Fold change /veh C5orf56 (11738088_a_at) / RFU OLFML3 (11715873_a_at) / Fold change /veh OLFML3 (11715873_a_at) / RFU LOC100653217 /// NTM (11731650_a_at) / Fold change /veh LOC100653217 /// NTM (11731650_a_at) / RFU MAPK11 (11762145_a_at) / Fold change /veh MAPK11 (11762145_a_at) / RFU FIZ1 (11724087_x_at) / Fold change /veh FIZ1 (11724087_x_at) / RFU OASL (11726364_x_at) / Fold change /veh OASL (11726364_x_at) / RFU SOX15 (11748057_x_at) / Fold change /veh SOX15 (11748057_x_at) / RFU CD79A (11719716_a_at) / Fold change /veh CD79A (11719716_a_at) / RFU HIST1H1D (11736915_at) / Fold change /veh HIST1H1D (11736915_at) / RFU CASKIN2 (11723855_a_at) / Fold change /veh CASKIN2 (11723855_a_at) / RFU LOC730098 (11760151_x_at) / Fold change /veh LOC730098 (11760151_x_at) / RFU OR4N2 (11742367_at) / Fold change /veh OR4N2 (11742367_at) / RFU PRRT2 (11749266_a_at) / Fold change /veh PRRT2 (11749266_a_at) / RFU SNX32 (11753110_a_at) / Fold change /veh SNX32 (11753110_a_at) / RFU CDHR5 (11726645_a_at) / Fold change /veh CDHR5 (11726645_a_at) / RFU RCAN1 (11760418_a_at) / Fold change /veh RCAN1 (11760418_a_at) / RFU FAM167A (11723789_a_at) / Fold change /veh FAM167A (11723789_a_at) / RFU FAM26E (11764081_at) / Fold change /veh FAM26E (11764081_at) / RFU ISYNA1 (11749810_s_at) / Fold change /veh ISYNA1 (11749810_s_at) / RFU ACY1 (11761880_at) / Fold change /veh ACY1 (11761880_at) / RFU 11764098_at / Fold change /veh 11764098_at / RFU SAMD14 (11745864_x_at) / Fold change /veh SAMD14 (11745864_x_at) / RFU NPB (11741838_a_at) / Fold change /veh NPB (11741838_a_at) / RFU TMPRSS6 (11731388_a_at) / Fold change /veh TMPRSS6 (11731388_a_at) / RFU KRTAP10-2 (11738614_at) / Fold change /veh KRTAP10-2 (11738614_at) / RFU ARHGAP8 /// PRR5-ARHGAP8 (11727945_x_at) / Fold change /veh ARHGAP8 /// PRR5-ARHGAP8 (11727945_x_at) / RFU KRTAP5-7 /// NADSYN1 (11734609_at) / Fold change /veh KRTAP5-7 /// NADSYN1 (11734609_at) / RFU RASL12 (11751679_a_at) / Fold change /veh RASL12 (11751679_a_at) / RFU CDKN2B (11736163_a_at) / Fold change /veh CDKN2B (11736163_a_at) / RFU PRF1 (11729649_at) / Fold change /veh PRF1 (11729649_at) / RFU, ZNF638 /// ZNF638-IT1 / Fold change vs veh, ZNF638 /// ZNF638-IT1 / RFU, PANK3 / Fold change vs veh, PANK3 / RFU, SH3YL1 / Fold change vs veh, SH3YL1 / RFU, ZEB2 / Fold change vs veh, ZEB2 / RFU, NRIP1 / Fold change vs veh, NRIP1 / RFU, PTTG1IP / Fold change vs veh, PTTG1IP / RFU, CAPN2 / Fold change vs veh, CAPN2 / RFU, MED14 / Fold change vs veh, MED14 / RFU, SNORA58 / Fold change vs veh, SNORA58 / RFU, C1orf63 / Fold change vs veh, C1orf63 / RFU, LRRFIP1 / Fold change vs veh, LRRFIP1 / RFU, NDUFAF7 / Fold change vs veh, NDUFAF7 / RFU, SLC12A2 / Fold change vs veh, SLC12A2 / RFU, IBTK / Fold change vs veh, IBTK / RFU, ESF1 / Fold change vs veh, ESF1 / Fold change vs veh, TMEM50B / RFU, TAOK1 / Fold change vs veh, TAOK1 / RFU, ACBD3 / Fold change vs veh, ACBD3 / RFU, TMA16 / Fold change vs veh, TMA16 / RFU, RWDD3 / Fold change vs veh, RWDD3 / RFU, BCAT1 / Fold change vs veh, BCAT1 / RFU, EDEM3 / Fold change vs veh, EDEM3 / RFU, TMEM33 / Fold change vs veh, TMEM33 / RFU, WDR75 / Fold change vs veh, WDR75 / RFU, AHCTF1 / Fold change vs veh, AHCTF1 / RFU, TFRC / Fold change vs veh, TFRC / RFU, ZDHHC17 / Fold change vs veh, ZDHHC17 / RFU, NOM1 / Fold change vs veh, NOM1 / RFU, ARL8B / Fold change vs veh, ARL8B / RFU, ZBTB11 / Fold change vs veh, ZBTB11 / RFU, TAMM41 / Fold change vs veh, TAMM41 / RFU, KIAA1704 /// LOC100996395 / Fold change vs veh, KIAA1704 /// LOC100996395 / RFU, ING1 / Fold change vs veh, ING1 / RFU, TRMT61B / Fold change vs veh, TRMT61B / RFU, FUBP3 / Fold change vs veh, FUBP3 / RFU, TP53 / Fold change vs veh, TP53 / RFU, TNKS2 / Fold change vs veh, TNKS2 / RFU, ZFP14 / Fold change vs veh, ZFP14 / RFU, ACTR2 / Fold change vs veh, ACTR2 / RFU, PPP3R1 / Fold change vs veh, PPP3R1 / RFU, PIK3R1 / Fold change vs veh, PIK3R1 / RFU, HNRNPA1 / Fold change vs veh, HNRNPA1 / RFU, RNF170 / Fold change vs veh, RNF170 / RFU, ZNF28 / Fold change vs veh, ZNF28 / RFU, RNGTT / Fold change vs veh, RNGTT / RFU, OGT / Fold change vs veh, OGT / RFU, BRD1 / Fold change vs veh, BRD1 / RFU, MARS / Fold change vs veh, MARS / RFU, ZNF655 / Fold change vs veh, ZNF655 / RFU, FAHD1 / Fold change vs veh, FAHD1 / RFU, BDP1 / Fold change vs veh, BDP1 / RFU, LRRCC1 / Fold change vs veh, LRRCC1 / RFU, ARID1A / Fold change vs veh, ARID1A / RFU, ZNF146 / Fold change vs veh, ZNF146 / RFU, ZNF330 / Fold change vs veh, ZNF330 / RFU, GPN3 / Fold change vs veh, GPN3 / RFU, C9orf123 / Fold change vs veh, C9orf123 / RFU, N4BP2L2 / Fold change vs veh, N4BP2L2 / RFU, ARFIP1 / Fold change vs veh, ARFIP1 / RFU, FAM179B / Fold change vs veh, FAM179B / RFU, BCL10 / Fold change vs veh, BCL10 / RFU, UHRF1BP1L / Fold change vs veh, UHRF1BP1L / RFU, BET1 / Fold change vs veh, BET1 / RFU, CNOT2 / Fold change vs veh, CNOT2 / RFU, ZNF268 / Fold change vs veh, ZNF268 / Fold change vs veh, ZNF507 / RFU, DGCR2 / Fold change vs veh, DGCR2 / RFU, WDSUB1 / Fold change vs veh, WDSUB1 / Fold change vs veh, HSP90B1 /// MIR3652 / RFU, ADSS / Fold change vs veh, ADSS / RFU, GK / Fold change vs veh, GK / RFU, ZNF148 / Fold change vs veh, ZNF148 / RFU, TAF9 / Fold change vs veh, TAF9 / RFU, SLC1A5 / Fold change vs veh, SLC1A5 / RFU, SLMO2 / Fold change vs veh, SLMO2 / RFU, ABCC4 / Fold change vs veh, ABCC4 / RFU, LOC101060439 /// RAP1B / Fold change vs veh, LOC101060439 /// RAP1B / RFU, RFX7 / Fold change vs veh, RFX7 / RFU, GTPBP10 / Fold change vs veh, GTPBP10 / RFU, CNEP1R1 / Fold change vs veh, CNEP1R1 / RFU, BIVM-ERCC5 /// ERCC5 / Fold change vs veh, BIVM-ERCC5 /// ERCC5 / RFU, ILF3 / Fold change vs veh, ILF3 / RFU 11762660_at / Fold change /veh 11762660_at / RFU VCAN (11757783_s_at) / Fold change /veh VCAN (11757783_s_at) / RFU DDX43 (11728927_at) / Fold change /veh DDX43 (11728927_at) / RFU KRT8 (11758188_x_at) / Fold change /veh KRT8 (11758188_x_at) / RFU NKD1 (11759106_at) / Fold change /veh NKD1 (11759106_at) / RFU SRD5A1 (11742802_a_at) / Fold change /veh SRD5A1 (11742802_a_at) / RFU TPSAB1 /// TPSB2 (11721975_s_at) / Fold change /veh TPSAB1 /// TPSB2 (11721975_s_at) / RFU GSTM3 (11746129_a_at) / Fold change /veh GSTM3 (11746129_a_at) / RFU IL23R (11737362_x_at) / Fold change /veh IL23R (11737362_x_at) / RFU TMEM51 (11727254_a_at) / Fold change /veh TMEM51 (11727254_a_at) / RFU PIWIL2 (11732686_x_at) / Fold change /veh PIWIL2 (11732686_x_at) / RFU ORM1 (11744905_x_at) / Fold change /veh ORM1 (11744905_x_at) / RFU CCDC152 (11743942_at) / Fold change /veh CCDC152 (11743942_at) / RFU ECM1 (11717891_a_at) / Fold change /veh ECM1 (11717891_a_at) / RFU IL23R (11748794_a_at) / Fold change /veh IL23R (11748794_a_at) / RFU TNFAIP8L3 (11732012_x_at) / Fold change /veh TNFAIP8L3 (11732012_x_at) / RFU MBOAT4 (11741988_at) / Fold change /veh MBOAT4 (11741988_at) / RFU 11764193_at / Fold change /veh 11764193_at / RFU TMEM53 (11763286_at) / Fold change /veh TMEM53 (11763286_at) / RFU MAGEB2 (11727129_at) / Fold change /veh MAGEB2 (11727129_at) / RFU TMEM200A (11744735_a_at) / Fold change /veh TMEM200A (11744735_a_at) / RFU CCDC152 (11751479_a_at) / Fold change /veh CCDC152 (11751479_a_at) / RFU FAM211A (11726209_a_at) / Fold change /veh FAM211A (11726209_a_at) / RFU RGS16 (11746705_a_at) / Fold change /veh RGS16 (11746705_a_at) / RFU VCAN (11755009_s_at) / Fold change /veh VCAN (11755009_s_at) / RFU RHOB (11743442_s_at) / Fold change /veh RHOB (11743442_s_at) / RFU RGS16 (11720943_a_at) / Fold change /veh RGS16 (11720943_a_at) / RFU RGS16 (11720944_at) / Fold change /veh RGS16 (11720944_at) / RFU, VPS4B / Fold change vs veh, VPS4B / RFU, CREB1 / Fold change vs veh, CREB1 / RFU, DNAJC13 / Fold change vs veh, DNAJC13 / RFU, GNAQ / Fold change vs veh, GNAQ / RFU, CDK5R1 / Fold change vs veh, CDK5R1 / RFU, ZRANB3 / Fold change vs veh, ZRANB3 / RFU, CUL4A / Fold change vs veh, CUL4A / RFU, CCNY / Fold change vs veh, CCNY / RFU, UFL1 / Fold change vs veh, UFL1 / RFU, COG3 / Fold change vs veh, COG3 / RFU, DIAPH2 / Fold change vs veh, DIAPH2 / RFU, SKA2 / Fold change vs veh, SKA2 / RFU, AFF3 / Fold change vs veh, AFF3 / RFU, LMF1 / Fold change vs veh, LMF1 / RFU, IPO11 / Fold change vs veh, IPO11 / RFU, DFFB / Fold change vs veh, DFFB / RFU, FOXP1 / Fold change vs veh, FOXP1 / RFU, CARD8 / Fold change vs veh, CARD8 / RFU, STRN3 / Fold change vs veh, STRN3 / RFU, ADK / Fold change vs veh, ADK / RFU, RASSF2 / Fold change vs veh, RASSF2 / RFU, WIPF1 / Fold change vs veh, WIPF1 / RFU, LARP1B / Fold change vs veh, LARP1B / RFU, RASA1 / Fold change vs veh, RASA1 / RFU, RB1 / Fold change vs veh, RB1 / RFU, PPFIA1 / Fold change vs veh, PPFIA1 / RFU, MAT2A / Fold change vs veh, MAT2A / RFU, CCT5 / Fold change vs veh, CCT5 / RFU, WDR92 / Fold change vs veh, WDR92 / RFU, CUX1 / Fold change vs veh, CUX1 / RFU, TTC7A / Fold change vs veh, TTC7A / RFU, TMEM135 / Fold change vs veh, TMEM135 / RFU, DEPTOR / Fold change vs veh, DEPTOR / RFU, CPM / Fold change vs veh, CPM / RFU, DNAJB6 / Fold change vs veh, DNAJB6 / RFU, CACNA2D3 / Fold change vs veh, CACNA2D3 / RFU, DTX4 / Fold change vs veh, DTX4 / RFU, TFCP2 / Fold change vs veh, TFCP2 / RFU, GMCL1 /// GMCL1P1 / Fold change vs veh, GMCL1 /// GMCL1P1 / RFU, AEBP2 / Fold change vs veh, AEBP2 / RFU, SNHG1 /// SNORD22 /// SNORD25 /// SNORD26 /// SNORD27 /// SNORD28 /// SNORD29 /// SNORD31 / Fold change vs veh, SNHG1 /// SNORD22 /// SNORD25 /// SNORD26 /// SNORD27 /// SNORD28 /// SNORD29 /// SNORD31 / Fold change (Aza/veh), C12orf56 (ProbeSet 11735607_a_at) / Fold change (ACY-1035/veh), C12orf56 (ProbeSet 11735607_a_at) / Fold change (Aza/veh), FGFR1OP (ProbeSet 11751329_s_at) / Fold change (ACY-1035/veh), FGFR1OP (ProbeSet 11751329_s_at) / Fold change (Aza/veh), VPS36 (ProbeSet 11739960_a_at) / Fold change (ACY-1035/veh), VPS36 (ProbeSet 11739960_a_at) / RFU SYPL1 (11715823_x_at) / Fold change /veh SYPL1 (11715823_x_at) / RFU IGFBP7 (11715501_s_at) / Fold change /veh IGFBP7 (11715501_s_at) / RFU REEP3 (11722064_at) / Fold change /veh REEP3 (11722064_at) / RFU IGLL1 (11728026_x_at) / Fold change /veh IGLL1 (11728026_x_at): dose or concentration left out as unconfirmed
Settings: ProbeSet 11726703_a_at; LIST B

## Nc1ccc(-c2cccs2)cc1NC(=O)c1ccc2c(c1)cc(C1CC1)n2CCN1CCOCC1 [ACY-1035]
  Fold change vs veh, BCL10: 0.84
